{"source": "paper PMC7316994", "about": "“In Vitro Pharmacological Profile of a New Small Molecule Bradykinin B2 Receptor Antagonist” (Frontiers in Pharmacology, 2020)", "key": {"rat B2 receptor": {"target": "T1, rat B2 receptor (Rattus norvegicus, UniProt P25023)", "T1 construct": "host or cells: HEK293T cells", "T1 sequence (P25023 1-396)": "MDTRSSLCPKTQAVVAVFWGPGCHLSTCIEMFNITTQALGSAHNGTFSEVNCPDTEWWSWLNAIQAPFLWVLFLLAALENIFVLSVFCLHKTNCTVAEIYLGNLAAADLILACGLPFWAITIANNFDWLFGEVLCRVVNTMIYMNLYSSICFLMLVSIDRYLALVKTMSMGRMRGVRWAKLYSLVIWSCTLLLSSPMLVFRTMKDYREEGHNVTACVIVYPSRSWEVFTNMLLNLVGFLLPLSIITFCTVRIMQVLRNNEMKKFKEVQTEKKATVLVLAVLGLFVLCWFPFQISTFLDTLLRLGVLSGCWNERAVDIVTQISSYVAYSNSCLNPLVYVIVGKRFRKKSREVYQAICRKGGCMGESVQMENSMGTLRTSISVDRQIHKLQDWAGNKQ", "assay": "Ca^2+ mobilization assay, HEK293T cells", "assay_type": "cell-based", "conditions": "BK at EC80 4.32 nM"}, "mouse B2 receptor": {"target": "T2, mouse B2 receptor (Mus musculus, UniProt P32299)", "T2 construct": "host or cells: HEK293T cells", "T2 sequence (P32299 1-392)": "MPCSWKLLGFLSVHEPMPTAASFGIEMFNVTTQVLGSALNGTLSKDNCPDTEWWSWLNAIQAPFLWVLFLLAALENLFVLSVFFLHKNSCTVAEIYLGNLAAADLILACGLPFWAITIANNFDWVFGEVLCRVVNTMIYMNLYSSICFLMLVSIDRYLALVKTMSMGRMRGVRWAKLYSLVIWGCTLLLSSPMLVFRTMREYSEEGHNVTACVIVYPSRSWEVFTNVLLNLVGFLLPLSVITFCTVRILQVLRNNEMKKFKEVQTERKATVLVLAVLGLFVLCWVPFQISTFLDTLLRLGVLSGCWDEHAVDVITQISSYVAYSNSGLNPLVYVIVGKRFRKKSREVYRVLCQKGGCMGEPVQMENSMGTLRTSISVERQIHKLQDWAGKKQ", "assay": "Ca^2+ mobilization assay, HEK293T cells", "assay_type": "cell-based", "conditions": "BK at EC80 0.53 nM, n=1"}, "kinin B1 receptor": {"target": "T3, kinin B1 receptor (Homo sapiens, UniProt P46663)", "T3 construct": "during the 3-hour incubation period to upregulate the expression of B1; from tissue; host or cells: human umbilical vein rings pre-incubated with interleukin-1β and tumor necrosis factor-α", "assay": "umbilical vein, Sar-[D-Phe^8]des-Arg^9-BK-induced contraction", "conditions": "1 μM"}, "Apelin APJ": {"target": "Apelin APJ (Homo sapiens, UniProt P35414)", "assay": "radioligand binding (Table S2)", "conditions": "[125I] [Glp65, Nle75, Tyr77]-apelin-13, Human recombinant CHO cells"}, "[1]": {"target": "Calcitonin gene related peptide CGRP (Homo sapiens, UniProt O60894+Q16602)", "sequence (Q16602 23-461)": "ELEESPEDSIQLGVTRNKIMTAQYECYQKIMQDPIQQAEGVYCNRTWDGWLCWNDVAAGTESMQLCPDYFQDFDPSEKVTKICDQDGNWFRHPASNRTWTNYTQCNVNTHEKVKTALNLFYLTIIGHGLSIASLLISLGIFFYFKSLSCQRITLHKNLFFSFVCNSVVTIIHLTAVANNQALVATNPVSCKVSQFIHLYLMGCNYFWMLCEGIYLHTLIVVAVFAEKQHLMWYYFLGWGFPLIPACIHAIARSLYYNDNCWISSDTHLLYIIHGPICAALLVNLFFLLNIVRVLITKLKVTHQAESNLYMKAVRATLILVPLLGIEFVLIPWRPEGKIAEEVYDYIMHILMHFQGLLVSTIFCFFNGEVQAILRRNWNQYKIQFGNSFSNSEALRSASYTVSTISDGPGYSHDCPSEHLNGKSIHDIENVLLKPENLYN", "sequence (O60894 27-148 partner)": "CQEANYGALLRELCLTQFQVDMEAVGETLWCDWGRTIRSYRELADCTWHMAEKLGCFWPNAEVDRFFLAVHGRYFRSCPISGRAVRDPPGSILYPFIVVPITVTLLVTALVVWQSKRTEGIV", "assay": "radioligand binding (Table S2)", "conditions": "[125I] hCGRPα, Human recombinant CHO cells"}, "Chemokine CCR1": {"target": "T4, Chemokine CCR1 (Homo sapiens, UniProt P32246)", "T4 construct": "host or cells: HEK-293 cells", "assay": "radioligand binding (Table S2)", "conditions": "[125I] MIP-1α, Human recombinant HEK-293 cells"}, "Chemokine CXCR2 (IL-8RB)": {"target": "Chemokine CXCR2 (IL-8RB) (Homo sapiens, UniProt P25025)", "sequence (P25025 whole entry)": "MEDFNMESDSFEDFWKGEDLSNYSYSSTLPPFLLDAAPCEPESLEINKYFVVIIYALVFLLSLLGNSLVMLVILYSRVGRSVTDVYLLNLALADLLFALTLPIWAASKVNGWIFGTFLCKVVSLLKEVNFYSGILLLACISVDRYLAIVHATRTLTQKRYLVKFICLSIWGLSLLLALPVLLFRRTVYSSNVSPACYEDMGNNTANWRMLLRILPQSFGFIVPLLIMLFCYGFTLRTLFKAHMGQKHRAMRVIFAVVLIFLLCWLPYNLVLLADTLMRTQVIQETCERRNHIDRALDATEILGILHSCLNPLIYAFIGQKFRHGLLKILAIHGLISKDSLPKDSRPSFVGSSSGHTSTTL", "assay": "radioligand binding (Table S2)", "conditions": "[125I] IL-8, Human recombinant CHO-K1 cells"}, "Melanocortin MC4": {"target": "T5, Melanocortin MC4 (Homo sapiens, UniProt P32245)", "T5 construct": "host or cells: CHO cells", "T5 sequence (P32245 whole entry)": "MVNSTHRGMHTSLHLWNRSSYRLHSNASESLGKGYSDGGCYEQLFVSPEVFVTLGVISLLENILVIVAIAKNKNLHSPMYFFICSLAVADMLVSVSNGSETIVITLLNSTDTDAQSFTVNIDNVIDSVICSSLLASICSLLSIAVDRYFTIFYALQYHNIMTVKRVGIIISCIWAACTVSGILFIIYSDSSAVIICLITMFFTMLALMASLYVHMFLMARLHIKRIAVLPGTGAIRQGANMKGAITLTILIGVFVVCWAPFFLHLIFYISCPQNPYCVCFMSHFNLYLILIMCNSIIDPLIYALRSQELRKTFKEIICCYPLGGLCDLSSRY", "assay": "radioligand binding (Table S2)", "conditions": "[125I] NDP-α-MSH, Human recombinant CHO cells"}, "Melatonin MT1 (ML1A)": {"target": "T6, Melatonin MT1 (ML1A) (Homo sapiens, UniProt P48039)", "T6 construct": "host or cells: CHO cells", "T6 sequence (P48039 whole entry)": "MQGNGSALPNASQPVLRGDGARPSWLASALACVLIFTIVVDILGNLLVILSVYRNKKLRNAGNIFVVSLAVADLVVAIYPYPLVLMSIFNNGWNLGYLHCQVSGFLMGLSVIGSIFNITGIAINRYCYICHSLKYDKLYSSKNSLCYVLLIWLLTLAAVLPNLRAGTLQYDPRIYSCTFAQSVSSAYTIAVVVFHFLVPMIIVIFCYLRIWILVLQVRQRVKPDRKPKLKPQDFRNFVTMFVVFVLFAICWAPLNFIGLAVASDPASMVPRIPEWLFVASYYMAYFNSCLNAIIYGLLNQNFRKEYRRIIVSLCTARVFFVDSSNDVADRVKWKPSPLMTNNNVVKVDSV", "assay": "radioligand binding (Table S2)", "conditions": "[125I] 2-iodomelatonin, Human recombinant CHO cells"}, "Prostanoid EP1": {"target": "T7, Prostanoid EP1 (Homo sapiens, UniProt P34995)", "T7 construct": "host or cells: HEK-293 cells", "T7 sequence (P34995 whole entry)": "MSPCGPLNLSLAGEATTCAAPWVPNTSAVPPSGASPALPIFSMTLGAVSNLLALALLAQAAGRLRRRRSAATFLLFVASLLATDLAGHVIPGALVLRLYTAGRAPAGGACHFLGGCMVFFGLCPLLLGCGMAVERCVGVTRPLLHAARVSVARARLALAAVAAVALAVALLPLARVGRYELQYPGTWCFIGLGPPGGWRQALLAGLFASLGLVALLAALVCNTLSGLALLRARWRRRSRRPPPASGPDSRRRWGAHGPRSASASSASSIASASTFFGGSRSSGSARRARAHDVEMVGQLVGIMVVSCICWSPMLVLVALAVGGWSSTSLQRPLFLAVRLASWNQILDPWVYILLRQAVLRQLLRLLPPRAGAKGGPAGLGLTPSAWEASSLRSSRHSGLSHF", "assay": "radioligand binding (Table S2)", "conditions": "[3H] Prostaglandin E2, Human recombinant HEK-293 cells"}, "Purinergic receptor P2X": {"tested_on": "Purinergic receptor P2X", "assay": "radioligand binding (Table S2)", "conditions": "[3H] α,β-MeATP, Rat urinary bladder"}, "Purinergic receptor P2Y": {"tested_on": "Purinergic receptor P2Y", "assay": "radioligand binding (Table S2)", "conditions": "[35S] dATPαS, Rat cerebral cortex"}, "Serotonin 5-HT3": {"target": "T8, Serotonin 5-HT3 (Homo sapiens, UniProt P46098)", "T8 construct": "host or cells: CHO cells", "T8 sequence (P46098 24-478)": "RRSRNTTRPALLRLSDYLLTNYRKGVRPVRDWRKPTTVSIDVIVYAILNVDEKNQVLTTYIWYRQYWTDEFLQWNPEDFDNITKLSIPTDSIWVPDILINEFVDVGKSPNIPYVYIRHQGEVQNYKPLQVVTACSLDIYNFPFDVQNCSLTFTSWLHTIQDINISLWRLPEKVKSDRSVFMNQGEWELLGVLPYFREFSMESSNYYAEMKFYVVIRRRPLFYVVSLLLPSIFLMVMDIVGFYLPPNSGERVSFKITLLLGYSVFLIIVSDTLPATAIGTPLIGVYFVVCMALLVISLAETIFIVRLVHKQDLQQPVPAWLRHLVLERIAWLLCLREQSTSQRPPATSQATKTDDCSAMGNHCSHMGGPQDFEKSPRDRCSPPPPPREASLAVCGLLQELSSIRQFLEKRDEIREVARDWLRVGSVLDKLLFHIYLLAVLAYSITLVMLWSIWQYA", "assay": "radioligand binding (Table S2)", "conditions": "[3H] BRL 43694, Human recombinant CHO cells"}, "Somatostatin sst5": {"target": "Somatostatin sst5 (Homo sapiens, UniProt P35346)", "sequence (P35346 whole entry)": "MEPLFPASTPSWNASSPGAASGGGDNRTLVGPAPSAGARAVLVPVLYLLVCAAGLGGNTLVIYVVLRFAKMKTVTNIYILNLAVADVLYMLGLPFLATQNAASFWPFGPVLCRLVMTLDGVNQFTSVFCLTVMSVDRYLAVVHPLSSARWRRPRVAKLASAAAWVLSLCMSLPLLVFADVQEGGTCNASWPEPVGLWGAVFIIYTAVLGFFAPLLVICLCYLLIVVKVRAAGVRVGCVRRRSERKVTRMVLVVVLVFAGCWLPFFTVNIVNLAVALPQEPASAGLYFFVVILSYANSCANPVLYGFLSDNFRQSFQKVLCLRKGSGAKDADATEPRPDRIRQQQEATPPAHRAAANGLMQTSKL", "assay": "radioligand binding (Table S2)", "conditions": "[125I] Tyr11-Somatostatin 14, Human recombinant Chem-1 cells"}, "Urotensin UT": {"target": "T9, Urotensin UT (Homo sapiens, UniProt Q9UKP6)", "T9 construct": "host or cells: CHO cells", "assay": "radioligand binding (Table S2)", "conditions": "[125I] Urotensin-II, Human recombinant CHO cells"}, "COX1": {"target": "T10, COX1 (Homo sapiens, UniProt P23219)", "T10 construct": "Eurofins (assay provider)", "T10 sequence (P23219 24-599)": "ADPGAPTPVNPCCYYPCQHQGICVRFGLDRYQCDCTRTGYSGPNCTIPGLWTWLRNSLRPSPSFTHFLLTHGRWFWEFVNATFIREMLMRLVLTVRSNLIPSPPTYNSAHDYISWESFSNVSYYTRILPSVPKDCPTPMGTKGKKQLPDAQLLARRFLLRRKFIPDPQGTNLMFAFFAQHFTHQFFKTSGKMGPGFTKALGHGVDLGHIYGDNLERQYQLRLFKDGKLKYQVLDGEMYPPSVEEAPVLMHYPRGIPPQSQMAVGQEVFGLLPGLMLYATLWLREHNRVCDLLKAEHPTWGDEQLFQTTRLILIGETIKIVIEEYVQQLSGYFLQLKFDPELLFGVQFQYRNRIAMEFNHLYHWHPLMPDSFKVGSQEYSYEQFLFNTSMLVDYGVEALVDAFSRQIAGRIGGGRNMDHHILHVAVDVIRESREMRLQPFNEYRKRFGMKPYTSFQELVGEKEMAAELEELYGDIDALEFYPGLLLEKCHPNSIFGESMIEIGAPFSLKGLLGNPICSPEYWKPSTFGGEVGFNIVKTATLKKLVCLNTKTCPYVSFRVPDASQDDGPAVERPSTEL", "assay": "enzyme assay (Table S2)", "assay_type": "biochemical", "conditions": "Arachidonic acid (3 µM) + ADHP, Fluorimetry"}, "Adenosine A1": {"target": "Adenosine A1 (Homo sapiens, UniProt P30542)", "sequence (P30542 whole entry)": "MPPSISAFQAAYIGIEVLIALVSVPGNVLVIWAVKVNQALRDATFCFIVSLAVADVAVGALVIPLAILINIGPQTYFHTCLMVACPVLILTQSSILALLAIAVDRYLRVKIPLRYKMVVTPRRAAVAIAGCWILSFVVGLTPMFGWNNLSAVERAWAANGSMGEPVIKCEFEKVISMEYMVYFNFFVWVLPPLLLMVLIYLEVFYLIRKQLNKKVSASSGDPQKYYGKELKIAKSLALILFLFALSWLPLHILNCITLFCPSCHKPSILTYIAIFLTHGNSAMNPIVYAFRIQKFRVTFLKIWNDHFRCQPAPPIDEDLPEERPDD", "assay": "functional assay, impedance, CHO cells (Table S2)", "assay_type": "cell-based", "conditions": "read-out: % inhibition of reference agonist response @ 10 µM (antagonist effect), CPA (1 nM)"}, "C5a": {"target": "T11, C5a (Homo sapiens, UniProt P21730)", "T11 construct": "expressed in transfected cells; host or cells: HEK-293 cells", "T11 sequence (P21730 whole entry)": "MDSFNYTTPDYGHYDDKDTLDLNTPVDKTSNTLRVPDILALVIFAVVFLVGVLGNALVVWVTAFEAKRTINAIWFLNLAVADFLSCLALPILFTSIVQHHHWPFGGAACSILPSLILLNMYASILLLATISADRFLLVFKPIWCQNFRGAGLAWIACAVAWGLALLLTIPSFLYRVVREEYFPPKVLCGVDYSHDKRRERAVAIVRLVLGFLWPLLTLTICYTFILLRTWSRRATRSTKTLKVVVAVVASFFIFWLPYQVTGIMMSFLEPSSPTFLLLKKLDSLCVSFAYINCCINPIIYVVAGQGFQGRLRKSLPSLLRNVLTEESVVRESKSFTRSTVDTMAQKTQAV", "assay": "functional assay, cAMP HTRF, HEK-293 cells (Table S2)", "assay_type": "cell-based"}, "Potassium channel hERG": {"target": "Potassium channel hERG (Homo sapiens, UniProt Q12809)", "assay": "in vitro"}, "Angiotensine AT2": {"target": "Angiotensine AT2 (Homo sapiens, UniProt P50052)", "sequence (P50052 whole entry)": "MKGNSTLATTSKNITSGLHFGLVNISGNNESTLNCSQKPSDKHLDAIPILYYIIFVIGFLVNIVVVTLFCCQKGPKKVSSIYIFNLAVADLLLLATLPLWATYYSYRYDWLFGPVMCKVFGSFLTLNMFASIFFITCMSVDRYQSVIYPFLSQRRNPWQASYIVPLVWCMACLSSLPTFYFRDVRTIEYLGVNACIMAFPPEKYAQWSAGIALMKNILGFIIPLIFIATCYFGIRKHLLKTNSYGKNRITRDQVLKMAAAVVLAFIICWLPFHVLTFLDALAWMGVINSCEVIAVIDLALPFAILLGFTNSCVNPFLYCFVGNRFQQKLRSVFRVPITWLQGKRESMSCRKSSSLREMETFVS", "assay": "radioligand binding (Table S2)", "conditions": "read-out: % Inhibition @ 10 µM"}, "Cannabinoid CB2": {"target": "Cannabinoid CB2 (Homo sapiens, UniProt P34972)", "sequence (P34972 whole entry)": "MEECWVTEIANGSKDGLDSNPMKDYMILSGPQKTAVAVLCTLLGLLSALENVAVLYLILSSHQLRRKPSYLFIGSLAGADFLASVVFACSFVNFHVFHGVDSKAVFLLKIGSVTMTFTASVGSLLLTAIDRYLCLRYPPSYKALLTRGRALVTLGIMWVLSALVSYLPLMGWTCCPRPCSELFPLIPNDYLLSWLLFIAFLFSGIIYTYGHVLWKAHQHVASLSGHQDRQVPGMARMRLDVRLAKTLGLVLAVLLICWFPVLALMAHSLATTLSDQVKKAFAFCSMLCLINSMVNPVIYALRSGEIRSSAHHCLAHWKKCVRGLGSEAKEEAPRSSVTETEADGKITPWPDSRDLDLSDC", "assay": "radioligand binding (Table S2)", "conditions": "read-out: % Inhibition @ 10 µM"}, "[2]": {"target": "Gamma-aminobutyric acid GABAB1B (Homo sapiens, UniProt Q9UBS5)", "assay": "radioligand binding (Table S2)", "conditions": "read-out: % Inhibition @ 10 µM"}, "Muscarinic M2": {"target": "Muscarinic M2 (Homo sapiens, UniProt P08172)", "assay": "radioligand binding (Table S2)", "conditions": "read-out: % Inhibition @ 10 µM"}, "Muscarinic M4": {"target": "Muscarinic M4 (Homo sapiens, UniProt P08173)", "assay": "radioligand binding (Table S2)", "conditions": "read-out: % Inhibition @ 10 µM"}}}
{"smiles": "Cc1cc(-c2ncnn2C)c2cccc(OCc3c(Cl)cc(F)cc3[C@H](C)NC(=O)COC(F)F)c2n1", "note": "[Compound 3, (S)-N-(1-(3-chloro-5-fluoro-2-((2-methyl-4-(1-methyl-1H-1,2,4-triazol-5-yl)quinolin-8-yloxy)methyl)phenyl)ethyl)-2-(difluoromethoxy)acetamide]", "values": [{"measurement": "IC50", "setting": "rat B2 receptor", "result": 1030, "unit": "nM"}, {"measurement": "Kb", "setting": "rat B2 receptor", "result": 147, "unit": "nM"}, {"measurement": "IC50", "setting": "mouse B2 receptor", "result": "~1200", "unit": "nM"}, {"measurement": "Kb", "setting": "mouse B2 receptor", "result": "~350", "unit": "nM"}, {"measurement": "effect on contraction by B1 receptor agonist Sar-[D-Phe^8]des-Arg^9-BK", "setting": "kinin B1 receptor", "result": "failed to antagonize"}, {"measurement": "inhibition at 10 µM", "setting": "Apelin APJ", "result": -0.4, "unit": "%"}, {"measurement": "inhibition at 10 µM", "setting": "[1]", "result": -26.1, "unit": "%"}, {"measurement": "inhibition at 10 µM", "setting": "Chemokine CCR1", "result": -9.6, "unit": "%"}, {"measurement": "inhibition at 10 µM", "setting": "Chemokine CXCR2 (IL-8RB)", "result": 17, "unit": "%"}, {"measurement": "inhibition at 10 µM", "setting": "Melanocortin MC4", "result": 7.1, "unit": "%"}, {"measurement": "inhibition at 10 µM", "setting": "Melatonin MT1 (ML1A)", "result": 15.3, "unit": "%"}, {"measurement": "inhibition at 10 µM", "setting": "Prostanoid EP1", "result": 80, "unit": "%"}, {"measurement": "% Inhibition @ 10 µM", "setting": "Purinergic receptor P2X", "result": 6.3, "unit": "%"}, {"measurement": "% Inhibition @ 10 µM", "setting": "Purinergic receptor P2Y", "result": -4.3, "unit": "%"}, {"measurement": "inhibition at 10 µM", "setting": "Serotonin 5-HT3", "result": 2.1, "unit": "%"}, {"measurement": "inhibition at 10 µM", "setting": "Somatostatin sst5", "result": 2, "unit": "%"}, {"measurement": "inhibition at 10 µM", "setting": "Urotensin UT", "result": 13.5, "unit": "%"}, {"measurement": "inhibition at 10 µM", "setting": "COX1", "result": -9.3, "unit": "%"}, {"measurement": "inhibition at 10 µM", "setting": "Adenosine A1", "result": -2.3, "unit": "%"}, {"measurement": "inhibition at 10 µM", "setting": "C5a; HEK293, read-out: % inhibition of reference agonist response @ 10 µM (antagonist effect), hC5a (10 nM)", "result": -0.2, "unit": "%"}, {"measurement": "% of reference agonist response @ 10 µM (agonist effect)", "setting": "C5a; reference hC5a (100 nM)", "result": -18.1, "unit": "%"}, {"measurement": "inhibition at 60 min, 10 µM", "setting": "Potassium channel hERG", "result": 17.8, "unit": "%"}, {"measurement": "inhibition at 10 µM", "setting": "Angiotensine AT2", "result": 3.5, "unit": "%"}, {"measurement": "inhibition at 10 µM", "setting": "Cannabinoid CB2", "result": -17.7, "unit": "%"}, {"measurement": "inhibition at 10 µM", "setting": "[2]", "result": 9, "unit": "%"}, {"measurement": "inhibition at 10 µM", "setting": "Muscarinic M2", "result": -12.4, "unit": "%"}, {"measurement": "inhibition at 10 µM", "setting": "Muscarinic M4", "result": -1.3, "unit": "%"}]}
